# Results reported in patent US12570655B2, “Cysteine covalent modifiers of AKT1 and uses thereof” (Terremoto Biosciences, Inc., priority 2023, dated 2026).
# Where two headings read alike, the source gives them in different places.
# Experiments:
# Format in all cases: cell-based
# AKT1 E17K = target: T1, AKT1 E17K (Homo sapiens, UniProt P31749, E17K); assay: Live cell AKT1 E17K target engagement by NanoBRET competitive probe displacement; conditions: HEK293 cells transfected with kinase-NanoLuciferase fusion, 2 h at 37° C.
# T1 construct: expressed in transfected cells; host or cells: HEK293
# T1 sequence (P31749 whole entry E17K, the tested form may be a part): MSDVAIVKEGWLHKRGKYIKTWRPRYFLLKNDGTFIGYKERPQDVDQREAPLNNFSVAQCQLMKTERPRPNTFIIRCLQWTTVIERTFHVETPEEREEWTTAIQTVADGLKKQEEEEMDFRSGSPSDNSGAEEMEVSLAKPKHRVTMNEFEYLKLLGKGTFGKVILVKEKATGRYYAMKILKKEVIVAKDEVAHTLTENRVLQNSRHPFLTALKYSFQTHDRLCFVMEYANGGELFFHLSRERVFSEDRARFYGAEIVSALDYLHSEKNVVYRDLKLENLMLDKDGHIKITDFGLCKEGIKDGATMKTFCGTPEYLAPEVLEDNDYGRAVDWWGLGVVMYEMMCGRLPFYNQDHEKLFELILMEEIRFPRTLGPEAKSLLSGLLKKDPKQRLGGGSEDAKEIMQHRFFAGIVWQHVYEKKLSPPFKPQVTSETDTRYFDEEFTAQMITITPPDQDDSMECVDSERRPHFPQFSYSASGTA
# Outline: (§1)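 Luminescence ratio 600/460 nm served as readout after HEK293 cells bearing transiently expressed kinase–NanoLuciferase fusions were exposed 2 h at 37 °C to test compound alongside an ATP-competitive fluorescent tracer near EC50. Extracellular signal was quenched by a luciferase inhibitor.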
# [1] = system: LAPC4 prostate cancer cells; assay: Antiproliferative effects in LAPC4 cells (CellTiter Glo); conditions: LAPC4 cells (AKT1 E17K allele), read-out: LAPC4 proliferation IC50
# Outline: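 IC50 values reflect 72 h compound treatment of cells plated at 1,000 per well, with CellTiter Glo luminescence as the viability read-out.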
# AKT2 = target: T2, AKT2 (Homo sapiens, UniProt P31751); assay: Live cell AKT2 target engagement by NanoBRET competitive probe displacement; conditions: HEK293 cells transfected with kinase-NanoLuciferase fusion, 2 h at 37° C.
# T2 construct: expressed in transfected cells; host or cells: HEK293
# T2 sequence (P31751 whole entry, the tested form may be a part): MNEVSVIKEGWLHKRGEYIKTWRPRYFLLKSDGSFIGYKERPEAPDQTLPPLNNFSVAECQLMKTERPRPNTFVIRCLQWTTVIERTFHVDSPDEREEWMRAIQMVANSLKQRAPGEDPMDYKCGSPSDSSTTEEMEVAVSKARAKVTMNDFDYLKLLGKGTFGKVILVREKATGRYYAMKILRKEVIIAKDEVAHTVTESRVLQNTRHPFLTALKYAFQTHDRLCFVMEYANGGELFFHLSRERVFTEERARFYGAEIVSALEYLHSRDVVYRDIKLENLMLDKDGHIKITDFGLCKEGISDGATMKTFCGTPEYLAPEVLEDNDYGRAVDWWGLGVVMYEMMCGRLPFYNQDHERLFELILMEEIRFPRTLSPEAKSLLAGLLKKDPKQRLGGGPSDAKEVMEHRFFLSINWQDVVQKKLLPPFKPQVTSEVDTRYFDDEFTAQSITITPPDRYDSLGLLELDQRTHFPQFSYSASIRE
# Outline: as §1
# AKT1 WT = target: T3, AKT1 WT (Homo sapiens, UniProt P31749); assay: Live cell AKT1 WT target engagement by NanoBRET competitive probe displacement; conditions: HEK293 cells transfected with kinase-NanoLuciferase fusion, 2 h at 37° C.
# T3 construct: expressed in transfected cells; host or cells: HEK293
# T3 sequence (P31749 whole entry, the tested form may be a part): as the sequence (P31749 whole entry E17K, the tested form may be a part) above, with K17E counted along it
# Outline: as §1
IC50 (AKT1 E17K),"IC50 ([1]; Homo sapiens, LAPC4, 72 h)",IC50 (AKT2),IC50 (AKT1 WT),IC50 ([1]; 72 h),SMILES
> 1000 nM,3650 nM,3910 nM,58 nM,–,"C/C=C/C(=O)N1CCC(N[C@H]2CCc3cc(-n4c(-c5cccnc5N)nc5ccc(-n6cccn6)nc54)ccc32)CC1 [Example 96, (S,E)-1-(4-((5-(2-(2-aminopyridin-3-yl)-5-(1H-pyrazol-1-yl)-3H-imidazo[4,5-b]pyridin-3-yl)-2,3-dihydro-1H-inden-1-yl)amino)piperidin-1-yl)but-2-en-1-one]"
56.2 nM,71.2 nM,146 nM,20 nM,–,"C=CC(=O)N1CCC(N[C@H]2CCc3cc(-n4c(-c5cccnc5N)nc5ccc(-c6nccs6)nc54)ccc32)CC1 [Example 159, 1-(4-{[(1S)-5-[2-(2-aminopyridin-3-yl)-5-(1,3-thiazol-2-yl)imidazo[4,5-b]pyridin-3-yl]-2,3-dihydro-1H-inden-1-yl]amino}piperidin-1-yl)prop-2-en-1-one]"
14.2 nM,–,57.3 nM,294 nM,314 nM,"C=CC(=O)N1CCC(N[C@@H]2c3ccc(-n4c(-c5cccnc5N)nc5ccc(-n6ccc(C7CC7)n6)nc54)cc3CC2F)CC1 (single isomer, unassigned) [Example 298, 1-(4-(((1R,2*)-5-(2-(2-aminopyridin-3-yl)-5-(3-cyclopropyl-1H-pyrazol-1-yl)-3H-imidazo[4,5-b]pyridin-3-yl)-2-fluoro-2,3-dihydro-1H-inden-1-yl)amino)piperidin-1-yl)prop-2-en-1-one]"
215 nM,–,1120 nM,93.7 nM,617 nM,"C=CC(=O)N1CCC(N[C@H]2CCc3cc(-n4c(-c5cccnc5N)nc5ccc(-n6cccn6)nc54)ccc32)C(F)(F)C1 (single isomer, unassigned) [Example 55, 1-((*)-4-(((S)-5-(2-(2-aminopyridin-3-yl)-5-(1H-pyrazol-1-yl)-3H-imidazo[4,5-b]pyridin-3-yl)-2,3-dihydro-1H-inden-1-yl)amino)-3,3-difluoropiperidin-1-yl)prop-2-en-1-one]"
168 nM,362 nM,1080 nM,26.9 nM,–,"C=CC(=O)N1CCC(N[C@H]2CCc3cc(-n4c(-c5cccnc5)nc5ccc(-n6cccn6)nc54)ccc32)CC1 [Example 153, (S)-1-(4-((5-(5-(1H-pyrazol-1-yl)-2-(pyridin-3-yl)-3H-imidazo[4,5-b]pyridin-3-yl)-2,3-dihydro-1H-inden-1-yl)amino)piperidin-1-yl)prop-2-en-1-one]"
14.1 nM,238 nM,37.9 nM,12 nM,–,"C=CS(=O)(=O)Nc1ccccc1C(=O)N[C@H]1CCc2cc(-n3c(-c4cccnc4N)nc4ccc(-n5cccn5)nc43)ccc21 [Example 24, (S)-N-(5-(2-(2-aminopyridin-3-yl)-5-(1H-pyrazol-1-yl)-3H-imidazo[4,5-b]pyridin-3-yl)-2,3-dihydro-1H-inden-1-yl)-2-(vinylsulfonamido)benzamide]"
20.7 nM,52 nM,152 nM,21.2 nM,–,"C=CC(=O)N1CCC(N[C@H]2CCc3cc(-n4c(-c5cccnc5N)nc5ccc(-n6nccn6)nc54)ccc32)CC1 [Example 33, 1-(4-{[(1S)-5-[2-(2-aminopyridin-3-yl)-5-(1,2,3-triazol-2-yl)imidazo[4,5-b]pyridin-3-yl]-2,3-dihydro-1H-inden-1-yl]amino}piperidin-1-yl)prop-2-en-1-one]"
49 nM,122 nM,103 nM,34.5 nM,–,"C=CC(=O)Nc1c(F)cccc1C(=O)N[C@H]1CCc2cc(-n3c(-c4cccnc4N)nc4ccc(-n5cccn5)nc43)ccc21 [Example 44, N-[(1S)-5-[2-(2-aminopyridin-3-yl)-5-(pyrazol-1-yl)imidazo[4,5-b]pyridin-3-yl]-2,3-dihydro-1H-inden-1-yl]-3-fluoro-2-(prop-2-enamido)benzamide]"
> 1000 nM,2050 nM,> 10000 nM,> 1000 nM,–,"C=CC(=O)N1CCC[C@H]1C(=O)N[C@H]1CCc2cc(-n3c(-c4cccnc4N)nc4ccc(-n5cccn5)nc43)ccc21 [Example 26, (S)-1-acryloyl-N—((S)-5-(2-(2-aminopyridin-3-yl)-5-(1H-pyrazol-1-yl)-3H-imidazo[4,5-b]pyridin-3-yl)-2,3-dihydro-1H-inden-1-yl)pyrrolidine-2-carboxamide]"
247 nM,–,640 nM,78.1 nM,568 nM,"C=CC(=O)N1CCCC(N[C@H]2CCc3cc(-n4c(-c5cccnc5N)nc5ccc(-n6cccn6)nc54)ccc32)CC1 (single isomer, unassigned) [Example 82, 1-((*)-4-(((S)-5-(2-(2-aminopyridin-3-yl)-5-(1H-pyrazol-1-yl)-3H-imidazo[4,5-b]pyridin-3-yl)-2,3-dihydro-1H-inden-1-yl)amino)azepan-1-yl)prop-2-en-1-one]"
46.2 nM,310 nM,271 nM,19.4 nM,–,"C=C(F)C(=O)Nc1ccccc1C(=O)N[C@H]1CCc2cc(-n3c(-c4cccnc4N)nc4ccc(-n5cccn5)nc43)ccc21 [Example 5, (S)-N-(5-(2-(2-aminopyridin-3-yl)-5-(1H-pyrazol-1-yl)-3H-imidazo[4,5-b]pyridin-3-yl)-2,3-dihydro-1H-inden-1-yl)-2-(2-fluoroacrylamido)benzamide]"
18.1 nM,71 nM,26.7 nM,33.2 nM,–,"C#Cc1cccc(-c2ccc3nc(-c4cccnc4N)n(-c4ccc5c(c4)CC[C@@H]5NC4CCN(C(=O)C=C)CC4)c3n2)c1 [Example 178, 1-(4-{[(1S)-5-[2-(2-aminopyridin-3-yl)-5-(3-ethynylphenyl)imidazo[4,5-b]pyridin-3-yl]-2,3-dihydro-1H-inden-1-yl]amino}piperidin-1-yl)prop-2-en-1-one]"
9.43 nM,29.8 nM,31.8 nM,11.5 nM,–,"C=CC(=O)NCc1ccccc1C(=O)N[C@H]1CCc2cc(-n3c(-c4cccnc4N)nc4ccc(-n5cccn5)nc43)ccc21 [Example 71, N-[(1S)-5-[2-(2-aminopyridin-3-yl)-5-(pyrazol-1-yl)imidazo[4,5-b]pyridin-3-yl]-2,3-dihydro-1H-inden-1-yl]-2-(prop-2-enamidomethyl)benzamide]"
> 1000 nM,1630 nM,2940 nM,179 nM,–,"C=CC(=O)N1CCC(N(CCOC)[C@H]2CCc3cc(-n4c(-c5cccnc5N)nc5ccc(-n6cccn6)nc54)ccc32)CC1 [Example 74, 1-(4-{[(1S)-5-[2-(2-aminopyridin-3-yl)-5-(pyrazol-1-yl)imidazo[4,5-b]pyridin-3-yl]-2,3-dihydro-1H-inden-1-yl](2-methoxyethyl)amino}piperidin-1-yl)prop-2-en-1-one]"
68.4 nM,296 nM,717 nM,43 nM,–,"NC(=O)/C=C/c1ncccc1C(=O)N[C@H]1CCc2cc(-n3c(-c4cccnc4N)nc4ccc(-n5cccn5)nc43)ccc21 [Example 45, N-[(1S)-5-[2-(2-aminopyridin-3-yl)-5-(pyrazol-1-yl)imidazo[4,5-b]pyridin-3-yl]-2,3-dihydro-1H-inden-1-yl]-2-[(1E)-2-carbamoyleth-1-en-1-yl]pyridine-3-carboxamide]"
